The results in this text go back to ChEMBL document CHEMBL5113554, “Dactylosporolides: Glycosylated Macrolides from Dactylosporangium fulvum” (J Nat Prod, 2022).

In assay [1] the test system is Plasmodium falciparum. The assay can be described thus: Antiparasitic activity against Plasmodium falciparum 3D7 infected in erythrocytes assessed as parasite growth inhibition incubated for 48 hrs by SYBR Green I dye based fluorescence assay. Type of assay: functional, organism-based. To be noted: 3D7, Erythrocyte.
Assay [2] has as its system Plasmodium falciparum. The assay can be described thus: Antiparasitic activity against Plasmodium falciparum 3D7 infected in erythrocytes assessed as inhibition of parasite growth at 50 uM incubated for 48 hrs by SYBR Green I dye based fluorescence assay relative to control. Format: functional. To be noted: 3D7, Erythrocyte.

Broadly, the IC50 is the concentration at which inhibition is half-maximal. The inhibition is the relative decrease from the control value, in per cent. On to `CO[C@H]1[C@H](O)C[C@H](O[C@H]2[C@H](O)C[C@H](O[C@H]3CC[C@H](O[C@@H](CC(C)C)[C@H](C)[C@H](O)[C@@H](C)[C@H](O)C[C@H]4OC(=O)CCC[C@H](O)C[C@]5(O)O[C@H](C[C@H](O[C@H]6C[C@@H](OC)[C@H](O)[C@@H](C)O6)C[C@H](O)/C=C/C=C/[C@@H]4C)C[C@H](O)[C@H]5C)O[C@@H]3C)O[C@@H]2C)O[C@@H]1C`, for which the IC50 with Plasmodium falciparum [1] was found to be 16 µM. In addition, the inhibition at 50 µM with Plasmodium falciparum [2] came to 95.6%.

`CO[C@@H]1C[C@H](O[C@H]2C[C@@H]3C[C@H](O)[C@@H](C)[C@](O)(C[C@@H](O)CCCC(=O)O[C@H](C[C@@H](O)[C@H](C)[C@@H](O)[C@@H](C)[C@@H](O)CC(C)C)[C@@H](C)/C=C/C=C/[C@@H](O)C2)O3)O[C@H](C)[C@H]1O`: in the assay on Plasmodium falciparum [1], the IC50 is more than 50 µM. In addition, in the assay on Plasmodium falciparum [2], the inhibition at 50 µM is 34%. For `CCN(CC)CCCC(C)Nc1ccnc2cc(Cl)ccc12` (configuration not stated) [CHLOROQUINE], the inhibition at 50 µM with Plasmodium falciparum [2] was determined as 100%. Regarding `CO[C@@H]1C[C@H](O[C@H]2C[C@@H]3C[C@H](O)[C@@H](C)[C@](O)(C[C@@H](O)CCCC(=O)O[C@H](C[C@@H](O)[C@H](C)[C@@H](O)[C@@H](C)[C@H](CC(C)C)O[C@H]4CC[C@H](O[C@H]5C[C@@H](O)[C@H](O[C@H]6C[C@@H](O)[C@H](O)[C@@H](C)O6)[C@@H](C)O5)[C@@H](C)O4)[C@@H](C)/C=C/C=C/[C@@H](O)C2)O3)O[C@H](C)[C@H]1O`, in the assay on Plasmodium falciparum [1], the concentration for half-maximal inhibition (IC50) was 32 µM. For the same compound, the inhibition at 50 µM in the assay on Plasmodium falciparum [2] came out at 74.8%.
